Assay results from patent publication US11299497B2, “Substituted tetrahydropyran dihydrothienopyrimidines and their use as phosphodiesterase inhibitors” (UNION therapeutics A/S, priority 2017, dated 2022).

Experiments:
[1] = tested on: TNF-α release, human peripheral blood mononuclear cells (PBMC); test: TNF-α Release in LPS-stimulated PBMC; type: cell-based; conditions: 30 minutes pre-incubation, lipopolysaccharide stimulation 18 hours, TR-FRET, read-out: TNF-α IC50 range
Description: Human peripheral blood mononuclear cells (PBMC) were isolated from buffy coats. The blood is mixed with saline at a ratio of 1:1, and the PBMC were isolated using Lymphoprep Tube™ (Nycomed, Norway). The PBMC were suspended in RPMI1640 with 0.5% human serum albumin, pen/strep and 2 mM L-glutamine at a concentration of 5×105 c/ml. The cells were pre-incubated for 30 minutes with the test compounds in 96 well tissue culture plates and stimulated for 18 hours with lipopolysaccharide 1 mg/ml (Sigma). TNF-α concentration in the supernatants was measured using homogeneous time-resolved fluorescence resonance (TR-FRET). The assay is quantified by measuring fluorescence at 665 nm (proportional to TNF-α concentration) and 620 nm (control).
Results were expressed as IC50 values calculated from inhibition curves using as positive controls the secretion in LPS stimulated wells and as negative controls the secretion in unstimulated cells.

[2] = target: human PDE41 Dcatalytic domain (UniProt no. Q08499 [S380-L740]) (Homo sapiens (Human), UniProt Q08499); test: PDE4 Assay (TR-FRET, FAM-cAMP cleavage); type: biochemical; conditions: human PDE4D catalytic domain, cAMP / FAM-cAMP substrate, read-out: PDE4 IC50 range
human PDE41 Dcatalytic domain, sequence (Q08499 380-740): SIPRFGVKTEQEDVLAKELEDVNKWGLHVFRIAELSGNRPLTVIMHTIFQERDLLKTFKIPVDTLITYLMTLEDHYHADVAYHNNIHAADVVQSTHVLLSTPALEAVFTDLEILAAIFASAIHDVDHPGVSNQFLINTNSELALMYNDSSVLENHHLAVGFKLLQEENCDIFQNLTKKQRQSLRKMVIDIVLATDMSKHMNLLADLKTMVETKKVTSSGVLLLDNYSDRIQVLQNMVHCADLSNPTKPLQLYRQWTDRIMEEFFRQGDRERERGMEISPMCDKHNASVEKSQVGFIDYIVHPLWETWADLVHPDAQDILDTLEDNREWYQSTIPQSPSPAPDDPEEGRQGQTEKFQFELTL
Description: The human PDE41 Dcatalytic domain (UniProt no. Q08499 [S380-L740]) was incubated with a mixture of non-labelled cAMP (cyclic adenosine monophosphate) and fluorescein amidite (FAM) conjugated cAMP and titrated test or reference compound. Following brief incubation the enzymatic reaction was stopped by addition of binding buffer containing nanoparticles with immobilized trivalent metal ions capable of binding 1) AMP phospho groups and 2) terbium (Tb) donor fluorophores. Subsequent excitation of the Tb donor triggers time-resolved FRET to adjacent FAM acceptor molecules resulting in light emission. In the presence of a PDE4 inhibitor, AMP generation was reduced resulting in a lower fluorescence signal. The cAMP phosphodiester is not bound by the detection system.
The results were calculated as the molar concentrations resulting in 50/inhibition of the substrate cleavage compared to controls samples, and are expressed as IC50 (nM).

| SMILES | IC50 [1] [nM] | IC50 [2] [nM] |
| --- | --- | --- |
| CCNc1nc(N(C)CCC2CCOCC2)nc2c1[S+]([O-])CC2 (stereo not drawn) [Example 19, N4-ethyl-N2-methyl-5-oxido-N2-(2-tetrahydropyran-4-ylethyl)-6,7-dihydrothieno[3,2-d]pyrimidin-5-ium-2,4-diamine] | 50 to 100 | > 100 |
| CN(CCC1CCOCC1)c1nc2c(c(NC(C)(C)CO)n1)[S+]([O-])CC2 (stereo not drawn) [Example 18, 2-methyl-2-[[2-[methyl(2-tetrahydropyran-4-ylethyl)amino]-5-oxido-6,7-dihydrothieno[3,2-d]pyrimidin-5-ium-4-yl]amino]propan-1-ol] | > 100 | > 100 |
| CN(CCC1CCOCC1)c1nc2c(c(NC3COC3)n1)[S+]([O-])CC2 (stereo not drawn) [Example 21, N2-methyl-N4-(oxetan-3-yl)-5-oxido-N2-(2-tetrahydropyran-4-ylethyl)-6,7-dihydrothieno[3,2-d]pyrimidin-5-ium-2,4-diamine] | 50 to 100 | > 100 |
| CN(CCC1CCOCC1)c1nc2c(c(NC3(CO)CCCC3)n1)[S+]([O-])CC2 (stereo not drawn) [Example 22, [1-[[2-[methyl(2-tetrahydropyran-4-ylethyl)amino]-5-oxido-6,7-dihydrothieno[3,2-d]pyrimidin-5-ium-4-yl]amino]cyclopentyl]methanol] | > 100 | > 100 |
| CN(CCC1CCOCC1)c1nc2c(c(NC3(CO)CCC3)n1)[S+]([O-])CC2 (stereo not drawn) [Example 23, [1-[[2-[methyl(2-tetrahydropyran-4-ylethyl)amino]-5-oxido-6,7-dihydrothieno[3,2-d]pyrimidin-5-ium-4-yl]amino]cyclobutyl]methanol] | > 100 | > 100 |
| CN(CCC1CCOCC1)c1nc2c(c(NC3(C#N)CCC3)n1)[S+]([O-])CC2 (stereo not drawn) [Example 10, 1-[[2-[methyl(2-tetrahydropyran-4-ylethyl)amino]-5-oxido-6,7-dihydrothieno[3,2-d]pyrimidin-5-ium-4-yl]amino]cyclobutanecarbonitrile] | 10 to 50 | 10 to 50 |
| CN(CCC1CCOCC1)c1nc2c(c(NC(C)(C)C)n1)[S+]([O-])CC2 (stereo not drawn) [Example 3, N4-tert-butyl-N2-methyl-5-oxido-N2-(2-tetrahydropyran-4-ylethyl)-6,7-dihydrothieno[3,2-d]pyrimidin-5-ium-2,4-diamine] | 10 to 50 | 10 to 50 |
| CN(CCC1CCOCC1)c1nc2c(c(NC3(C)CC3)n1)[S+]([O-])CC2 (stereo not drawn) [Example 14, N2-methyl-N4-(1-methylcyclopropyl)-5-oxido-N2-(2-tetrahydropyran-4-ylethyl)-6,7-dihydrothieno[3,2-d]pyrimidin-5-ium-2,4-diamine] | < 10 | 10 to 50 |
| CN(CCC1CCOCC1)c1nc2c(c(NC3(C#N)CC3)n1)[S+]([O-])CC2 (stereo not drawn) [Example 11, 1-[[2-[methyl(2-tetrahydropyran-4-ylethyl)amino]-5-oxido-6,7-dihydrothieno[3,2-d]pyrimidin-5-ium-4-yl]amino]cyclopropanecarbonitrile] | 10 to 50 | 10 to 50 |
| CCN(CCC1CCOCC1)c1nc2c(c(NC3CCOCC3)n1)[S@@+]([O-])CC2 [Example 2, (5R)—N2-ethyl-5-oxido-N4-tetrahydropyran-4-yl-N2-(2-tetrahydropyran-4-ylethyl)-6,7-dihydrothieno[3,2-d]pyrimidin-5-ium-2,4-diamine] | < 10 | < 10 |
| CC(C)Nc1nc(N(C)CCC2CCOCC2)nc2c1[S+]([O-])CC2 (stereo not drawn) [Example 5, N4-isopropyl-N2-methyl-5-oxido-N2-(2-tetrahydropyran-4-ylethyl)-6,7-dihydrothieno[3,2-d]pyrimidin-5-ium-2,4-diamine] | 10 to 50 | 10 to 50 |
| COc1cccc(Nc2nc(N(C)CCC3CCOCC3)nc3c2[S+]([O-])CC3)c1 (stereo not drawn) [Example 16, N4-(3-methoxyphenyl)-N2-methyl-5-oxido-N2-(2-tetrahydropyran-4-ylethyl)-6,7-dihydrothieno[3,2-d]pyrimidin-5-ium-2,4-diamine] | < 10 | < 10 |
| CN(CCC1CCOCC1)c1nc2c(c(NC3CCOCC3)n1)[S+]([O-])CC2 (stereo in doubt) [Example 1, (5R)—N2-methyl-5-oxido-N4-tetrahydropyran-4-yl-N2-(2-tetrahydropyran-4-ylethyl)-6,7-dihydrothieno[3,2-d]pyrimidin-5-ium-2,4-diamine] | 10 to 50 | 10 to 50 |
| CN(CCC1CCOCC1)c1nc2c(c(NC3CCCCC3)n1)[S+]([O-])CC2 (stereo not drawn) [Example 17, N4-cyclohexyl-N2-methyl-5-oxido-N2-(2-tetrahydropyran-4-ylethyl)-6,7-dihydrothieno[3,2-d]pyrimidin-5-ium-2,4-diamine] | < 10 | < 10 |
| CN(CCC1CCOCC1)c1nc2c(c(NC3CC4(COC4)C3)n1)[S+]([O-])CC2 (stereo not drawn) [Example 15, N2-methyl-N4-(6-oxaspiro[3.3]heptan-2-yl)-5-oxido-N2-(2-tetrahydropyran-4-ylethyl)-6,7-dihydrothieno[3,2-d]pyrimidin-5-ium-2,4-diamine] | < 10 | 10 to 50 |
| CC(C)CNc1nc(N(C)CCC2CCOCC2)nc2c1[S+]([O-])CC2 (stereo not drawn) [Example 7, N4-isobutyl-N2-methyl-5-oxido-N2-(2-tetrahydropyran-4-ylethyl)-6,7-dihydrothieno[3,2-d]pyrimidin-5-ium-2,4-diamine] | 10 to 50 | 10 to 50 |
| CN(CCC1CCOCC1)c1nc2c(c(NC3(C)CCC3)n1)[S+]([O-])CC2 (stereo not drawn) [Example 8, N2-methyl-N4-(1-methylcyclobutyl)-5-oxido-N2-(2-tetrahydropyran-4-ylethyl)-6,7-dihydrothieno[3,2-d]pyrimidin-5-ium-2,4-diamine] | < 10 | 10 to 50 |
| CC[C@H](C)Nc1nc(N(C)CCC2CCOCC2)nc2c1[S+]([O-])CC2 (stereo partly drawn) [Example 12, N2-methyl-N4-[(1S)-1-methylpropyl]-5-oxido-N2-(2-tetrahydropyran-4-ylethyl)-6,7-dihydrothieno[3,2-d]pyrimidin-5-ium-2,4-diamine] | 10 to 50 | 10 to 50 |
| CCCCNc1nc(N(C)CCC2CCOCC2)nc2c1[S+]([O-])CC2 (stereo not drawn) [Example 6, N4-butyl-N2-methyl-5-oxido-N2-(2-tetrahydropyran-4-ylethyl)-6,7-dihydrothieno[3,2-d]pyrimidin-5-ium-2,4-diamine] | 10 to 50 | 10 to 50 |
| CN(CCC1CCOCC1)c1nc2c(c(NC3CCCC3)n1)[S+]([O-])CC2 (stereo not drawn) [Example 20, N4-cyclopentyl-N2-methyl-5-oxido-N2-(2-tetrahydropyran-4-ylethyl)-6,7-dihydrothieno[3,2-d]pyrimidin-5-ium-2,4-diamine] | < 10 | < 10 |
| CN(CCC1CCOCC1)c1nc2c(c(NC3CCC3)n1)[S+]([O-])CC2 (stereo not drawn) [Example 9, N4-cyclobutyl-N2-methyl-5-oxido-N2-(2-tetrahydropyran-4-ylethyl)-6,7-dihydrothieno[3,2-d]pyrimidin-5-ium-2,4-diamine] | 10 to 50 | 10 to 50 |
| CN(CCC1CCOCC1)c1nc2c(c(NC3(CO)CC3)n1)[S+]([O-])CC2 (stereo not drawn) [Example 24, [1-[[2-[methyl(2-tetrahydropyran-4-ylethyl)amino]-5-oxido-6,7-dihydrothieno[3,2-d]pyrimidin-5-ium-4-yl]amino]cyclopropyl]methanol] | > 100 | > 100 |
| CC[C@@H](C)Nc1nc(N(C)CCC2CCOCC2)nc2c1[S+]([O-])CC2 (stereo partly drawn) [Example 13, N2-methyl-N4-[(1R)-1-methylpropyl]-5-oxido-N2-(2-tetrahydropyran-4-ylethyl)-6,7-dihydrothieno[3,2-d]pyrimidin-5-ium-2,4-diamine] | < 10 | 10 to 50 |
| CCCNc1nc(N(C)CCC2CCOCC2)nc2c1[S+]([O-])CC2 (stereo not drawn) [Example 4, N2-methyl-5-oxido-N4-propyl-N2-(2-tetrahydropyran-4-ylethyl)-6,7-dihydrothieno[3,2-d]pyrimidin-5-ium-2,4-diamine] | 10 to 50 | 50 to 100 |
